In patent US20250221957A1, “PS[…] AND THEIR USE FOR TREATING […] AND NE[…] DISORDERS” (Transcend Therapeutics, Inc., priority 2021, published 2025):

How the values were obtained:
[1] = test system: Sprague Dawley rats; assay: Forced Swim Test (FST); type: in vivo, rat; settings: for reduction in immobility compared to saline vehicle: single dose 30 min prior to testing (Example 6)
Text: The Forced Swim Test (FST) is a classic, and the most used preclinical behavioral assay to screen compounds with antidepressant-like activity and has high predictive and face validity (Porsolt et al. (1977) Nature 266:730; Borsini and Meli (1988) Psychopharmacology 94:147). The premise of the FST is that when rats are placed into a cylinder filled with water, they will initially try to escape, but over time will become immobile. This increased immobility reflects behavioral despair, modeling a depressive-like state.
Animals: Male Sprague Dawley rats (Charles River Laboratories) weighing 180-200 g on arrival, were used for this study which took place at Melior Discovery (Exton, PA). Rats acclimated to their home cages for at least one week before testing, were maintained in a controlled environment on a 12 h light/dark cycle, with no more than 2 rats per cage. Animals received ad libitum access to food and water and were assigned randomly to treatment groups. Animal use and procedures were in accordance with established protocols approved by the IACUC committee, Melior Standard Operation Procedures (SOP), and Transcend Therapeutics.
Forced Swim Test (FST): In the FST trial, rats were be placed in a circular plexiglass container filled with water, with no means of escape. Water temperature was maintained at 22-25° C. and changed for every animal. After an acclimation period, rats were timed for inactivity (failure to struggle), activity, swim time and climbing time. Day 1 consisted of a 15 min acclimation trial, and Day 2 (24 h later) consisted of the 5 min test. A time sampling procedure was employed where animals were observed every 5 sec and scored for immobility, swimming, or climbing. Fluoxetine (10 mg/kg, IP, Sigma Aldrich) or 0.9% sterile saline vehicle (vehicle 3× group) were administered 23.5, 5, and 1 h before testing in the FST. […] The experimenter was blinded to treatment.
Statistical Analysis: Data for each parameter of the test (immobility, swimming, or climbing) is expressed as the mean±SEM. Differences between groups were determined by one-way ANOVA and post-hoc Tukey's test with a p-value of less than 0.05 indicating statistically significant differences.
Forced Swim Test: In the FST trial, rats were be placed in a circular plexiglass container filled with water, with no means of escape. Water temperature was maintained at 22-25° C. and changed for every animal. After an acclimation period, rats were timed for inactivity (failure to struggle), activity, swim time and climbing time. Day 1 consisted of a 15 min acclimation trial, and Day 2 (24 h later) consisted of the 5 min test. A time sampling procedure was employed where animals were observed every 5 sec and scored for immobility, swimming, or climbing. Fluoxetine (10 mg/kg, IP, Sigma Aldrich) or 0.9% sterile saline vehicle (vehicle 3× group) were administered 23.5, 5, and 1 h before testing in the FST. 2C-B (2.5, 10, or 20 mg/kg, IP, Cayman Chemical) or 0.9% saline vehicle (vehicle 1× group) were administered 30 min prior to FST testing. The experimenter was blinded to treatment.
Drug Treatment: Fluoxetine (10 mg/kg, IP, Sigma Aldrich) or 0.9% sterile saline vehicle were administered 23.5, 5, and 1 h before testing in the FST. […] Control animals received fluoxetine alone, methylone alone, or saline vehicle.
Forced Swim Test: In the FST trial, rats were be placed in a circular plexiglass container filled with water, with no means of escape. Water temperature was maintained at 22-25° C. and changed for every animal. After an acclimation period, rats were timed for inactivity (failure to struggle), activity, swim time and climbing time. The experimenter and scorer were blind to treatment group. Day 1 consisted of a 15 min acclimation trial, and Day 2 (24 h later) consisted of the 5 min test. A time sampling procedure was employed where animals were observed every 5 sec and scored for immobility, swimming, or climbing. […]

[2] = test system: rats; assay: Open field test (OFT); type: in vivo, rat; settings: single methylone dose 5 or 15 mg/kg IP, 30 minutes before testing
Experimental: Data are mean +/− SEM. N=6 per group. * p<0.05; **p<0.01 vs. vehicle control group.
Method: Consecutive beam breaks and/or video-tracking of time spent in the center versus periphery of the open field are measured. Also measured are parameters such as distance traveled and ambulatory activity (horizontal and vertical) for the duration of the test session.
The open field test (OFT) capitalizes on a rodent's innate fear of open spaces to assess anxiety-like behavior. More time spent in the center of an open field reflects an anxiolytic (anti-anxiety) effect.

[3] = biological target: vesicular monoamine transporter 2 (VMAT2) (Homo sapiens, UniProt Q05940); settings: cited from earlier work
[4] = cited from earlier work
[5] = rats, intraperitoneal administration

Chain of vesicular monoamine transporter 2 (VMAT2) (Q05940 whole entry, species assumed): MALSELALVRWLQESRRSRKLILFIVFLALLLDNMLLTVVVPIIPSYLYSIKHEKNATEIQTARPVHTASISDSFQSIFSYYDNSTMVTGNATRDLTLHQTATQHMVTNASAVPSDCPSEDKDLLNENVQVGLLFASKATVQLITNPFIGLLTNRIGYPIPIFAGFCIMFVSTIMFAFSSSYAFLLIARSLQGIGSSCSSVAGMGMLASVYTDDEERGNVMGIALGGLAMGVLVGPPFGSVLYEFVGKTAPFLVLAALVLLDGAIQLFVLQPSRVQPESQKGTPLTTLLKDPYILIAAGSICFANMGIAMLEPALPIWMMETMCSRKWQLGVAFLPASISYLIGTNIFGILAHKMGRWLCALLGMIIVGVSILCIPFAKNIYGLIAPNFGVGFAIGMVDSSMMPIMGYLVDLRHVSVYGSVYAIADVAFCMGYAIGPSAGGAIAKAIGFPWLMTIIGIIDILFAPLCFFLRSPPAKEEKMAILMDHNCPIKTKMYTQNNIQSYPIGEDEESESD

CNC(C)C(=O)c1ccc2c(c1)OCO2 (stereo not shown) [methylone, 3,4-methylenedioxy-N-methylcathinone]
climbing behavior ([1]; Example 8): significantly increased climbing behavior | reduced immobility compared to vehicle ([1]; Methylone alone, 5 mg/kg IP (Example 8)): 71% | reduced immobility compared to vehicle ([1]; combined treatment: fluoxetine x3 plus Methylone 15 mg/kg IP (Example 8)): 95% | reduction in immobility compared to saline vehicle ([1]; methylone 5 mg/kg IP): 54% | reduction in immobility compared to saline vehicle ([1]; methylone 15 mg/kg IP): 99% | reduction in immobility compared to saline vehicle ([1]; methylone 30 mg/kg IP): 96% | climbing ([1]; methylone 5, 15, 30 mg/kg IP, Example 6): only increased at the lowest dose | swimming ([1]; methylone mid and high doses (15, 30 mg/kg IP), Example 6): significantly increased swimming | reduced immobility vs. vehicle ([1]; single dose of Methylone (5 mg/kg IP) after three prior doses of fluoxetine 10 mg/kg IP (Example 8)): 62% | immobility time ([1]; single doses of 10 and 15 mg/kg methylone IP (Example 11)): reducing immobility time significantly | immobility ([1]; two or three 5 mg/kg doses IP (Example 11)): significantly reduce immobility | time spent in the center of the open field compared to vehicle [2]: significantly increases | affinity for VMAT2 lower than that of MDMA [3]: about 13 × | half-life shorter than MDMA ([4]; rat, in vivo): > 50% | half-life [4, 5]: 1 to 2 h | time of peak brain and serum concentration [4, 5]: 15 to 30 min
